From ChEMBL document CHEMBL1201862, “PubChem BioAssay data set” (2004)
Calls of active or inactive are those of the source.

Experiments:
[1] = target: Genome polyprotein (Hepatitis C virus, UniProt Q2Q167); test: disruption of hepatitis C core self-association – biochemical, TR-FRET, dose response (AID 2159); parameters: species or system Hepacivirus hominis;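 note: blocks dimerization of HCV core protein measured by TR-FRET between tagged core106 pairs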
[2] = target: E3 ubiquitin-protein ligase Mdm2 (Homo sapiens, UniProt Q00987); test: MDM2-luc reporter signal enhancers, multi-concentration potency testing, MDM2 ubiquitin-protein ligase inhibitor program, whole-cell format, luminescence detection, 384-well microplate (AID 1394); type: functional;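 note: MDM2 E3 inhibitors raise luminescence so EC50 is for signal enhancement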
Chain of E3 ubiquitin-protein ligase Mdm2 (Q00987 whole entry): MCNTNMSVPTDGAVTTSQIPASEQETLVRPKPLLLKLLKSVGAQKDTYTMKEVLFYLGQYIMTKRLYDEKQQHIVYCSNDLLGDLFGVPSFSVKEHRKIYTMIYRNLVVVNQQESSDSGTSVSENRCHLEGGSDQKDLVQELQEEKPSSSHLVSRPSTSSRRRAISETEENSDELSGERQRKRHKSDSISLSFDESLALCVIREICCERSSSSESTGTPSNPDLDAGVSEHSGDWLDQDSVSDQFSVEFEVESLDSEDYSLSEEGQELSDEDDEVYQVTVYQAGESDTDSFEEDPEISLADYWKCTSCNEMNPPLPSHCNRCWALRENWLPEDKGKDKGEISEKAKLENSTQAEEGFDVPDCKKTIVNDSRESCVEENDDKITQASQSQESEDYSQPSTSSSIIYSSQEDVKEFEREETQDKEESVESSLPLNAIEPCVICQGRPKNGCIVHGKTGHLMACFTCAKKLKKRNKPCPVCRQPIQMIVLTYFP

[3] = viability of PTEN-deleted HCT116 cells – cell-based, HCT116 PTEN knockout, dose response (AID 1047); type: functional;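 note: HCT116 colon tumor cells with PTEN knocked out; cells exposed to compound for 60 hours before readout; potency for loss of cell viability measured by luminescence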
[4] = viability loss of HPDE-C7K cells – cell-based, fluorescence, HTS, primary screen (AID 431); type: functional; details: Homo sapiens
[5] = viability of HCT116 lacking mutant beta-catenin – cell-based, human colon tumor, dose response (AID 1045); type: functional;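 note: HCT116 colon tumor cells with beta catenin knocked out; cells exposed to compound for 60 hours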
[6] = HPDE-C7 pancreatic duct cell viability loss – fluorescence, HTS (AID 430); type: functional, cell-based; details: Homo sapiens
[7] = viability loss in Vero cells – cytotoxicity control for Vif-APOBEC3G degradation inhibitor project, dose response (AID 1117358); type: functional; details: Vero
[8] = HEK-293T cell viability reduction – luminescence, B-cell screen hits, cytotoxicity control for BCR NF-kB inhibitor project, dose response (AID 489021); type: functional, cell-based;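 note: HEK-293T cells carrying an NF-kB luciferase reporter; cells exposed to compound for about 14 hours before viability readout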
[9] = target: T1, Hepatocyte nuclear factor 4-alpha (Homo sapiens, UniProt P41235); type: functional, cell-based;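 note: biochemical luminescence-based dose-response counterscreen measuring inhibition of HNF4 dimerization, run alongside a screen for blockers of ABHD5–perilipin-5 interaction; split luciferase complementation of HNF4 fusion proteins in cell lysate measuring dimerization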
T1 sequence (P41235 whole entry): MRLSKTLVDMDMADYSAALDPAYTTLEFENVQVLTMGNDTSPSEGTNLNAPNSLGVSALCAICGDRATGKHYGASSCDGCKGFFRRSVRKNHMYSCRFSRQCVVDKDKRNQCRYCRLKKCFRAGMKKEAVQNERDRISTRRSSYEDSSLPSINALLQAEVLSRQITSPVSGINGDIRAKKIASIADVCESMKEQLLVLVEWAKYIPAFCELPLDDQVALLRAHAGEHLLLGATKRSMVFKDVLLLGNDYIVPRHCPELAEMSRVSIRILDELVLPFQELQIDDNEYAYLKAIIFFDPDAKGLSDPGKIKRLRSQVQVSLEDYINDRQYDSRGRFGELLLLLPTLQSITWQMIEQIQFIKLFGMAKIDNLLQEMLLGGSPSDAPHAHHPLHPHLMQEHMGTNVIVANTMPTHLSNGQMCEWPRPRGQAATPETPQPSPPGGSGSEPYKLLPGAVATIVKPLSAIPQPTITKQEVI

[10] = Luminescence Cell-Based Dose Response HTS to Identify Activators of Luciferase Translation or Activity in H4 […] Cells. [Related pubchem assays: 1829 (Project Summary), 1814 (Primary HTS)]; type: functional
[11] = Luminescence Cell-Based Dose Response to Identify Activators of Luciferase Translation or Activity in H4-C Neuroglioblastoma Cells. [Related pubchem assays: 1829 (Project Summary), 1814 (Primary HTS)]; type: functional
[12] = Luminescence Cell-Based Dose Confirmation HTS to Identify Activators of 5'UTR Stem-Loop Driven Alpha-Synuclein mRNA Translation in H4 Neuroglioblastoma Cells. [Related pubchem assays: 1829 (Project Summary), 1814 (Primary HTS)]; type: functional
[13] = Luminescence Cell-Based Dose Confirmation to Identify Activators of 5'UTR Stem-Loop Driven Alpha-Synuclein mRNA Translation in H4 Neuroglioblastoma Cells. [Related pubchem assays: 1829 (Project Summary), 1814 (Primary HTS)]; type: functional
[14] = Luminescence Cell-Based Dose Response to Identify Activators of 5'UTR Stem-Loop Driven Prion Protein mRNA Translation in H4-C Neuroglioblastoma Cells. [Related pubchem assays: 1829 (Project Summary), 1814 (Primary HTS)]; type: functional
[15] = tested on: H4; test: Luminescence Cell-Based Dose Response HTS to Identify Activators of 5'UTR Stem-Loop Driven Prion Protein mRNA Translation in H4 Neuroglioblastoma Cells. [Related pubchem assays: 1829 (Project Summary), 1814 (Primary HTS)]; type: functional; details: Homo sapiens
[16] = target: Heat shock protein HSP 90-alpha (Homo sapiens, UniProt P07900); test: Luminescence-based dose response biochemical high throughput screening assay for inhibitors of the Heat Shock Protein 90 (HSP90). [Related pubchem assays: 1831 (Summary AID.), 1846 (Confirmation screen.), 1789 (Primary screen.)]
[17] = tested on: HEK293; test: inhibition of NOD1-driven NF-kB reporter – cell-based, luminescence, uHTS, primary screen (AID 1578); type: functional; details: Homo sapiens
[18] = tested on: HEK293; test: cells; details: Homo sapiens
[19] = target: ELAV-like protein 1 (Homo sapiens, UniProt Q15717); test: Identify HuR specific inhibitors.; type: functional
Chain of ELAV-like protein 1 (Q15717 whole entry, the tested form may be a part): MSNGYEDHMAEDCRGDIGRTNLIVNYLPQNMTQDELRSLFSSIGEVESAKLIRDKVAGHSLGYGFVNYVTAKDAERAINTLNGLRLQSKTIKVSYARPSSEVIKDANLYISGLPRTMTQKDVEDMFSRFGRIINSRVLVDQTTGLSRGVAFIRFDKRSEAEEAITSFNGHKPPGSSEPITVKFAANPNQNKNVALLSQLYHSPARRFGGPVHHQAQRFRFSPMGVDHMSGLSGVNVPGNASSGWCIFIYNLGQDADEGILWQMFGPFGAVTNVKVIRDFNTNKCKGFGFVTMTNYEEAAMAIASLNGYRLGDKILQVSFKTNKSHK

[20] = target: T2, Nucleotide-binding oligomerization domain-containing protein 1 (Homo sapiens, UniProt Q9Y239); test: blockers of NOD1 pathway activity – revised, SAR follow-up (AID 2333); type: functional
T2 sequence (Q9Y239 whole entry): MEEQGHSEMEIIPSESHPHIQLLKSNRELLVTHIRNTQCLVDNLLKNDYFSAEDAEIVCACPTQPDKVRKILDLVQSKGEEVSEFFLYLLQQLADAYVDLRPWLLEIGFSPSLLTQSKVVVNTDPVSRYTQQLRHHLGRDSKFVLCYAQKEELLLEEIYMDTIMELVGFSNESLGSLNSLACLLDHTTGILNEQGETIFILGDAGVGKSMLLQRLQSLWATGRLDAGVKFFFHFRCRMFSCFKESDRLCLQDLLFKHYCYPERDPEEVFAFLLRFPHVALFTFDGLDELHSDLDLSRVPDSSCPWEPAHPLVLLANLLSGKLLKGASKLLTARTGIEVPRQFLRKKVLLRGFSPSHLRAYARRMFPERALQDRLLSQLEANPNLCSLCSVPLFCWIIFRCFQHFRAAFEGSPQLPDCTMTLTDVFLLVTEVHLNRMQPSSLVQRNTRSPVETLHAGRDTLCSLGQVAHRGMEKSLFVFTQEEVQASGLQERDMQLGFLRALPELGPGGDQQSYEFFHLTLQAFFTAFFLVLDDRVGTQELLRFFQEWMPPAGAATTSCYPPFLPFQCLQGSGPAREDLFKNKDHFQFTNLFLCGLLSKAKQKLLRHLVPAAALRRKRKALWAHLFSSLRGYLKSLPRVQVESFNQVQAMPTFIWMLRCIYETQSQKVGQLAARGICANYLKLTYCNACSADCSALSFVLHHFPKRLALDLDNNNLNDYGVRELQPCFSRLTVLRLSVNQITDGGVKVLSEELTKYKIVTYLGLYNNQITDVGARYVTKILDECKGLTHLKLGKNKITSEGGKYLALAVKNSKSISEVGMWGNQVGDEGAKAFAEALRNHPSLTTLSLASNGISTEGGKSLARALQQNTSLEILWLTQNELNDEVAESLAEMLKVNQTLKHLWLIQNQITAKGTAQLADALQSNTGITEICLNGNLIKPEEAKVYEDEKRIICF

[21] = tested on: HEK293; test: NOD2 signaling inhibitors in MDP-stimulated cells, cell-based, uHTS, luminescence (AID 2001); type: functional; details: Homo sapiens
[22] = target: Tumor necrosis factor (Homo sapiens, UniProt P01375); test: analog potency on TNFa NF-kB signaling – cell-based, revised, SAR follow-up (AID 2337); type: functional
Chain of Tumor necrosis factor (P01375 whole entry): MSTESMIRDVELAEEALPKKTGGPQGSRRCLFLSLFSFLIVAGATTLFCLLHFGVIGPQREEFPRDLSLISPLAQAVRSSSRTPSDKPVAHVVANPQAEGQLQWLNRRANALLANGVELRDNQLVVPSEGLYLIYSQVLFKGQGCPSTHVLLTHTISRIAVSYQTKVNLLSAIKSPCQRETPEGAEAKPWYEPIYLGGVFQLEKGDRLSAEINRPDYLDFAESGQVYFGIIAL

[23] = tested on: HEK293; test: cells; type: functional, cell-based; details: Homo sapiens
[24] = tested on: HEK293; test: cells; type: functional, cell-based; details: Homo sapiens; remark: listed apart in the source
[25] = target: Protein-tyrosine kinase 2-beta (Homo sapiens, UniProt Q14289);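 note: potency of inhibitors of PYK2 kinase phosphorylation of poly-GT substrate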
Chain of Protein-tyrosine kinase 2-beta (Q14289 whole entry): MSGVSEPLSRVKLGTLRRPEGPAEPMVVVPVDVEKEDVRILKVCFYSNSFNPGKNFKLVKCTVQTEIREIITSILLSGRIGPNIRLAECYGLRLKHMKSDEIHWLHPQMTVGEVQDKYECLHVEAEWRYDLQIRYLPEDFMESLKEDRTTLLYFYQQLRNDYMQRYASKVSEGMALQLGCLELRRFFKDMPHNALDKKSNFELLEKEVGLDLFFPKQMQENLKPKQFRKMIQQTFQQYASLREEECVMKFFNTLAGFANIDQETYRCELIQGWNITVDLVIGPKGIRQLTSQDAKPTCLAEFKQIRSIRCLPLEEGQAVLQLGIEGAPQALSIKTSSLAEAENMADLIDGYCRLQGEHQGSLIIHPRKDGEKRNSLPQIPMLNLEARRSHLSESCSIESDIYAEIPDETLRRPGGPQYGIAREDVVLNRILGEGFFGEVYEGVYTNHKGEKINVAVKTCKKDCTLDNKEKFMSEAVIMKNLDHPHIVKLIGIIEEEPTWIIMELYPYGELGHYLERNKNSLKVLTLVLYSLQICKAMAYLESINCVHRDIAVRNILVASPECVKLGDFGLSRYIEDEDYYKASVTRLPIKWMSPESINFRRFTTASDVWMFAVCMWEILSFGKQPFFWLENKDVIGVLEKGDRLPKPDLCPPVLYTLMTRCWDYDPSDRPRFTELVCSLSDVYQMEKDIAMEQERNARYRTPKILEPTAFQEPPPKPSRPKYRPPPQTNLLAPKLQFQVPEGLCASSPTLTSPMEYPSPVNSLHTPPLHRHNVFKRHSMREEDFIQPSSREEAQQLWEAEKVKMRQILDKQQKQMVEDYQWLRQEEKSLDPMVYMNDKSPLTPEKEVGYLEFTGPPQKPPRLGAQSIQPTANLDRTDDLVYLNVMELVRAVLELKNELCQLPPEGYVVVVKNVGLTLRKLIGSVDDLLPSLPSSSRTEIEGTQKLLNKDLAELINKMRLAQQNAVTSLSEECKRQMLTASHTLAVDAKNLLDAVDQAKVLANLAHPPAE

[26] = target: Voltage-dependent T-type calcium channel subunit alpha-1H (Homo sapiens, UniProt O95180); type: functional;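 note: channel activity triggered by adding a high calcium stimulation buffer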
Chain of Voltage-dependent T-type calcium channel subunit alpha-1H (O95180 whole entry): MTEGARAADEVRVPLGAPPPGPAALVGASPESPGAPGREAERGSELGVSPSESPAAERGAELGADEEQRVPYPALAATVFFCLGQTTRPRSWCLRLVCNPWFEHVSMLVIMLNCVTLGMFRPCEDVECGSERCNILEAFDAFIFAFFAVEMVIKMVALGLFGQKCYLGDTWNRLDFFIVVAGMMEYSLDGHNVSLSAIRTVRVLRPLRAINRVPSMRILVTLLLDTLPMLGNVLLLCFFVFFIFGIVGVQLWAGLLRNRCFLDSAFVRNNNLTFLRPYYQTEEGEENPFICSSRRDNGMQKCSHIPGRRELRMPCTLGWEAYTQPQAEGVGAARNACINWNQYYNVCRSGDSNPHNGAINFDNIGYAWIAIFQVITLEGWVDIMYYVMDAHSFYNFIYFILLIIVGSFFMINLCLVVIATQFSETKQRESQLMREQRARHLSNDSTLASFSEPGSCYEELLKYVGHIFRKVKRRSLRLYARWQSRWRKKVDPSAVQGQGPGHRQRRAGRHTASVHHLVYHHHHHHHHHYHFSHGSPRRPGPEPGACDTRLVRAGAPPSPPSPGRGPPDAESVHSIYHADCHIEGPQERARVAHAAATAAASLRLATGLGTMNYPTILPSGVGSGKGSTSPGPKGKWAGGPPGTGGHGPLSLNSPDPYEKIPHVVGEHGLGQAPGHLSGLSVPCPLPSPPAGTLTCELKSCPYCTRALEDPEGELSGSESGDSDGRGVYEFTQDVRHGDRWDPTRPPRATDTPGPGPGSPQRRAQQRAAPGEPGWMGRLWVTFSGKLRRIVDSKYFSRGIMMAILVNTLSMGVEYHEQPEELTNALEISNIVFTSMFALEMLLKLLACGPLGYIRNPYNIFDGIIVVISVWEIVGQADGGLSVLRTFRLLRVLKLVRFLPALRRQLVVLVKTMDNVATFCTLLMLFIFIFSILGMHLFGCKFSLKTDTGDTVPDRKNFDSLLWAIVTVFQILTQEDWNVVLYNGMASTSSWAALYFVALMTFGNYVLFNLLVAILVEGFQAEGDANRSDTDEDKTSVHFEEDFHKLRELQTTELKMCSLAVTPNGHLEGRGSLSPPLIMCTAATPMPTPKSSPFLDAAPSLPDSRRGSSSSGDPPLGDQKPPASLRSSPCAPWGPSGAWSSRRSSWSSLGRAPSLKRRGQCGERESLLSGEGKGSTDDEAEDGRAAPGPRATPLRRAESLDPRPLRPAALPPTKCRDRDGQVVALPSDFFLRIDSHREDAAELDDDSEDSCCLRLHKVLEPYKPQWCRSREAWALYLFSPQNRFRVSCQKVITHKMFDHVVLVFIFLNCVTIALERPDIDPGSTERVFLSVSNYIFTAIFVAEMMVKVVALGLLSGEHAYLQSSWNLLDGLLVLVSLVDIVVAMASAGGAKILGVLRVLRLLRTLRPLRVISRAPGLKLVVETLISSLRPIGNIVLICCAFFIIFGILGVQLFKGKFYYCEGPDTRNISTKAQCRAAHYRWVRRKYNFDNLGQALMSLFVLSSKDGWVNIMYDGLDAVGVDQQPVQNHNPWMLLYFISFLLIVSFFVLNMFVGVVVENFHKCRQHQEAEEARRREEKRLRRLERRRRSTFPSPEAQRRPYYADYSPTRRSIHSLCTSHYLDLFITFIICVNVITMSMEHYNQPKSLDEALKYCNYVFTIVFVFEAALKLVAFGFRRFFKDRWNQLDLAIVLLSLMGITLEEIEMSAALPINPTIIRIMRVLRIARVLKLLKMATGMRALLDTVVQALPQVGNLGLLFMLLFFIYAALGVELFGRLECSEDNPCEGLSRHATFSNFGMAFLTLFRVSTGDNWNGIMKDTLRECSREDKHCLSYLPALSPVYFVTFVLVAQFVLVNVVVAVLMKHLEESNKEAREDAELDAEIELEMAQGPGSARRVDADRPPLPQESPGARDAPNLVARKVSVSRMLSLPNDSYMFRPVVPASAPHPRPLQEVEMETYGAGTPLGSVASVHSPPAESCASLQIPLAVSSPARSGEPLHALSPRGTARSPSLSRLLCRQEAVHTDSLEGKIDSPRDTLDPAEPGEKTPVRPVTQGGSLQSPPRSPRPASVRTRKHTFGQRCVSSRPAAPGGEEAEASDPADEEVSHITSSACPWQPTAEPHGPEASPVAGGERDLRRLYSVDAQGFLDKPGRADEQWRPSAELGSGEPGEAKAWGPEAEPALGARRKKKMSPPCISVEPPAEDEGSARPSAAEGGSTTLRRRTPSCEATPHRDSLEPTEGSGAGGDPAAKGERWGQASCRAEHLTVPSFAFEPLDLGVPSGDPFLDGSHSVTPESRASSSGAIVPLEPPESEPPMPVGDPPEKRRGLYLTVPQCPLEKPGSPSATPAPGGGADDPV

Chain of Genome polyprotein (Q2Q167 whole entry): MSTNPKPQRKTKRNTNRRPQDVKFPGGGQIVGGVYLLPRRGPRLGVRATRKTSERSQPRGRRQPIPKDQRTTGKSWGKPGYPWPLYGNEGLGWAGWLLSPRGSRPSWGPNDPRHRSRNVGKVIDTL

With Cc1cc(C(=O)OCC(=O)c2ccc(Cl)c([N+](=O)[O-])c2)c2cccc(C)c2n1 the IC50 [1] was > 49.8 µM (not active).
With CCOc1ccc(NC(=O)CN(C)S(=O)(=O)c2c[nH]cn2)cc1 the EC50 [2] was 25 µM (not active).
In the case of CC1=CC(C)(C)Nc2ccc(OC(=O)c3cccnc3)cc21, the EC50 [3] is reported as 7.33 µM (active), the EC50 [4] is reported as 8.23 µM (active) and the EC50 [5] is reported as 5.85 µM (active). For the same molecule, the EC50 [6] was 8.6 µM (active), the CC50 [7] was 34.4 µM (active) and the IC50 [8] was 62.5 µM (inactive). For the same molecule, the IC50 [9] was 3.22 µM (active).
With Cc1csc(C(C#N)C(=O)c2cc3ccccc3o2)n1 (stereo unspecified) the EC50 [10] was 0.387 µM (active), the EC50 [11] was 9.73 µM (active) and the EC50 [12] was < 0.1 µM (active). The EC50 [13] was 0.926 µM (active), the EC50 [14] was 1.46 µM (active) and the EC50 [15] was 3.63 µM (active).
In the case of CCOC(=O)c1csc(NC(=O)c2ccc(OCC)cc2)n1, the IC50 [16] is reported as 0.88 µM (active).
For O=C(Nc1cccc([N+](=O)[O-])c1)c1ccc2ccccc2c1O, the EC50 [17] was 3.05 µM (active), the IC50 [18] was 13.2 µM (active) and the IC50 [19] was 97.4 µM (inactive). The IC50 [20] was 4.36 µM (active), the IC50 [21] was 6.08 µM (inactive) and the IC50 [22] was 4.72 µM (active). For the same molecule, the IC50 [23] was > 20 µM (inactive) and the IC50 [24] was 6.83 µM (active).
With Cc1oc(-c2ccccc2)cc1C(=O)Nc1cccc2ccccc12 the IC50 [25] was > 69.5 µM (not active) and the EC50 [26] was 18 µM (active).
